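Compound exposure: 48 hours, 5 concentrations, 96-well plates. GI50 = concentration required for 50% inhibition of growth. Definition used: TGI = concentration required for complete inhibition of growth.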
What was measured:
Test in all cases: DTP human tumour cell line panel, 48 h
ACHN renal = test system: ACHN renal
HCT-15 colon = test system: HCT-15 colon
HL-60(TB) leukemia = test system: HL-60(TB) leukemia
K-562 leukemia = test system: K-562 leukemia
MALME-3M melanoma = test system: MALME-3M melanoma
NCI-H460 lung = test system: NCI-H460 lung
RPMI-8226 leukemia = test system: RPMI-8226 leukemia
SF-295 CNS = test system: SF-295 CNS
SW-620 colon = test system: SW-620 colon
U251 CNS = test system: U251 CNS

## O=c1c2sccc2n(CC2COc3ccccc3O2)c(=O)n1O (stereo not given)
ACHN renal
  GI50: 20.5 µM
  TGI: > 100 µM
HCT-15 colon
  GI50: 4.53 µM
  TGI: > 100 µM
HL-60(TB) leukemia
  GI50: 16.9 µM
  TGI: 44.7 µM
K-562 leukemia
  GI50: 4.1 µM
  TGI: > 100 µM
MALME-3M melanoma
  GI50: 20 µM
  TGI: 81.5 µM
NCI-H460 lung
  GI50: 4.66 µM
  TGI: 41.8 µM
RPMI-8226 leukemia
  GI50: 3.9 µM
  TGI: 24.5 µM
SF-295 CNS
  GI50: 9.51 µM
  TGI: > 100 µM
SW-620 colon
  GI50: 3.76 µM
  TGI: > 100 µM
U251 CNS
  GI50: 7.52 µM
  TGI: > 100 µM

## O=c1cc(-c2ccccc2)oc2cc(OCCCOc3ccc4c(=O)cc(-c5ccccc5)oc4c3)ccc12
ACHN renal
  TGI: > 100 µM
HCT-15 colon
  TGI: > 100 µM
HL-60(TB) leukemia
  TGI: > 100 µM
K-562 leukemia
  TGI: > 100 µM
MALME-3M melanoma
  TGI: > 100 µM
NCI-H460 lung
  TGI: > 100 µM
RPMI-8226 leukemia
  TGI: > 100 µM
SF-295 CNS
  TGI: > 100 µM
SW-620 colon
  TGI: > 100 µM
U251 CNS
  TGI: > 100 µM

## O=C(/C=C/c1ccc(Cl)cc1)c1ccc(Nc2ccnc3cc(Cl)ccc23)cc1
ACHN renal
  GI50: > 100 µM
  TGI: > 100 µM
HCT-15 colon
  GI50: 23.7 µM
  TGI: > 100 µM
HL-60(TB) leukemia
  GI50: 9.16 µM
  TGI: 59.6 µM
K-562 leukemia
  GI50: 4.98 µM
  TGI: > 100 µM
MALME-3M melanoma
  GI50: > 100 µM
  TGI: > 100 µM
NCI-H460 lung
  GI50: > 57.6 µM
  TGI: > 100 µM
RPMI-8226 leukemia
  GI50: 2.08 µM
  TGI: > 30.7 µM
SF-295 CNS
  TGI: > 48.8 µM
SW-620 colon
  GI50: 6.05 µM
  TGI: > 67.5 µM
U251 CNS
  GI50: 28.8 µM
  TGI: > 100 µM

## CC(C)(C)OC(=O)N[C@H]1CC2(C=C(Cl)C(=O)C(Cl)=C2)OC1=O
ACHN renal
  TGI: 28.2 µM
HCT-15 colon
  TGI: 34.9 µM
HL-60(TB) leukemia
  TGI: 6.53 µM
K-562 leukemia
  TGI: 7.41 µM
MALME-3M melanoma
  TGI: 25.9 µM
NCI-H460 lung
  TGI: 56.2 µM
RPMI-8226 leukemia
  TGI: 19.8 µM
SF-295 CNS
  TGI: 47.5 µM
SW-620 colon
  TGI: 19.1 µM
U251 CNS
  TGI: 45.2 µM

## CN1CCN(CCCn2c(=O)c3sc4ncccc4c3n3nnc(-c4ccccc4)c23)CC1
ACHN renal
  GI50: 8.2 µM
  TGI: 15.1 µM
HCT-15 colon
  GI50: 6.19 µM
  TGI: 13.2 µM
HL-60(TB) leukemia
  GI50: 0.795 µM
  TGI: 1.73 µM
K-562 leukemia
  GI50: 0.881 µM
  TGI: 2.05 µM
MALME-3M melanoma
  GI50: 9.41 µM
  TGI: 17.9 µM
NCI-H460 lung
  GI50: 6.88 µM
  TGI: 13.7 µM
RPMI-8226 leukemia
  GI50: 6.1 µM
  TGI: 15.8 µM
SF-295 CNS
  GI50: 5.63 µM
  TGI: 12.4 µM
SW-620 colon
  GI50: 5.34 µM
  TGI: 11.5 µM
U251 CNS
  GI50: 5.21 µM
  TGI: 11.2 µM

## COc1ccc(-c2nnc(COc3ccc(C(=O)/C=C/c4ccco4)cc3)o2)cc1
ACHN renal
  GI50: 2.12 µM
  TGI: 5.03 µM
HCT-15 colon
  GI50: 1.8 µM
  TGI: 4.25 µM
HL-60(TB) leukemia
  GI50: 2.65 µM
  TGI: 7.38 µM
K-562 leukemia
  GI50: 2.77 µM
  TGI: 7.45 µM
MALME-3M melanoma
  GI50: 2.82 µM
  TGI: 7.43 µM
NCI-H460 lung
  GI50: 3.66 µM
  TGI: 14 µM
RPMI-8226 leukemia
  GI50: 2.13 µM
  TGI: 5.94 µM
SF-295 CNS
  GI50: 3.75 µM
  TGI: 14.7 µM
SW-620 colon
  GI50: 1.91 µM
  TGI: 4.11 µM
U251 CNS
  GI50: 1.62 µM
  TGI: 3.08 µM

## Cc1cc(I)cc(CN(C)CCCN2CCCCC2)c1O
ACHN renal
  GI50: 17.3 µM
  TGI: 37.3 µM
HCT-15 colon
  GI50: 10.3 µM
  TGI: 30.7 µM
HL-60(TB) leukemia
  GI50: 12.7 µM
  TGI: 29.7 µM
K-562 leukemia
  GI50: 11.1 µM
  TGI: 23.1 µM
MALME-3M melanoma
  GI50: 21.7 µM
  TGI: 42.3 µM
NCI-H460 lung
  GI50: 12.5 µM
  TGI: 26.2 µM
RPMI-8226 leukemia
  GI50: 11.8 µM
  TGI: 29.9 µM
SF-295 CNS
  GI50: 2.39 µM
  TGI: 12.9 µM
SW-620 colon
  GI50: 14.6 µM
  TGI: 27.7 µM
U251 CNS
  GI50: 15.7 µM
  TGI: 33.4 µM

## CC1(C)C2CCC(=O)C1CC2 (stereo not given)
ACHN renal
  TGI: > 100 µM
HCT-15 colon
  TGI: > 100 µM
HL-60(TB) leukemia
  TGI: > 100 µM
K-562 leukemia
  TGI: > 100 µM
MALME-3M melanoma
  TGI: > 100 µM
NCI-H460 lung
  TGI: > 100 µM
RPMI-8226 leukemia
  TGI: > 100 µM
SF-295 CNS
  TGI: > 100 µM
SW-620 colon
  TGI: > 100 µM
U251 CNS
  TGI: > 100 µM

## CN(C)c1nc(=Nc2ccc(N=c3nc(N(C)C)ss3)cc2)ss1
ACHN renal
  TGI: > 100 µM
HCT-15 colon
  TGI: > 100 µM
HL-60(TB) leukemia
  TGI: 45.3 µM
K-562 leukemia
  TGI: 30.5 µM
MALME-3M melanoma
  TGI: 51.4 µM
NCI-H460 lung
  TGI: > 100 µM
RPMI-8226 leukemia
  TGI: 40.7 µM
SF-295 CNS
  TGI: > 100 µM
SW-620 colon
  TGI: > 65.9 µM
U251 CNS
  TGI: > 49.8 µM

## Fc1cc2[nH]ncc2c2c3c(c(-c4cn[nH]c4)nc12)CCCC3
ACHN renal
  GI50: 0.327 µM
  TGI: 10.3 µM
HCT-15 colon
  GI50: 0.56 µM
  TGI: > 61.5 µM
HL-60(TB) leukemia
  GI50: 1.81 µM
  TGI: 5.53 µM
K-562 leukemia
  GI50: 1.55 µM
  TGI: > 100 µM
MALME-3M melanoma
  GI50: 0.953 µM
  TGI: 3.16 µM
NCI-H460 lung
  GI50: 0.845 µM
  TGI: 4.69 µM
RPMI-8226 leukemia
  GI50: 1.08 µM
  TGI: 13.6 µM
SF-295 CNS
  GI50: 1.44 µM
  TGI: 6.44 µM
SW-620 colon
  GI50: 0.451 µM
  TGI: > 26.6 µM
U251 CNS
  GI50: 0.55 µM
  TGI: 13.4 µM

## Nc1ncnc2c1nnn2C1OC(CO)C(O)C1O (stereo not given)
ACHN renal
  GI50: 0.141 µM
  TGI: 8.84 µM
HCT-15 colon
  TGI: 20.6 µM
HL-60(TB) leukemia
  TGI: 2.16 µM
K-562 leukemia
  TGI: 13.9 µM
MALME-3M melanoma
  TGI: 4.62 µM
NCI-H460 lung
  TGI: 5.64 µM
RPMI-8226 leukemia
  TGI: 5.71 µM
SF-295 CNS
  TGI: 7.59 µM
SW-620 colon
  TGI: 8.35 µM
U251 CNS
  TGI: 37.8 µM

## COc1c(Cl)c(=O)oc2ccc(Cl)cc12
ACHN renal
  TGI: > 100 µM
HCT-15 colon
  TGI: > 100 µM
HL-60(TB) leukemia
  TGI: > 100 µM
K-562 leukemia
  TGI: > 100 µM
MALME-3M melanoma
  TGI: > 100 µM
NCI-H460 lung
  TGI: > 100 µM
RPMI-8226 leukemia
  TGI: > 100 µM
SF-295 CNS
  TGI: > 100 µM
SW-620 colon
  TGI: > 100 µM
U251 CNS
  TGI: > 100 µM

## CCN(CC)c1ccc(-c2cc(-c3cc(OC)c(OC)c(OC)c3)nc(N3CCOCC3)c2C#N)cc1
ACHN renal
  GI50: 1.22 µM
  TGI: > 100 µM
HCT-15 colon
  GI50: 0.584 µM
  TGI: > 66.6 µM
HL-60(TB) leukemia
  GI50: 0.463 µM
  TGI: 6.08 µM
K-562 leukemia
  GI50: 1 µM
  TGI: > 19.9 µM
MALME-3M melanoma
  GI50: 2.28 µM
  TGI: > 29.9 µM
NCI-H460 lung
  GI50: 0.412 µM
  TGI: 5.73 µM
RPMI-8226 leukemia
  GI50: 0.0387 µM
  TGI: 44.7 µM
SF-295 CNS
  GI50: 0.809 µM
  TGI: 3.98 µM
SW-620 colon
  GI50: 3.3 µM
  TGI: > 100 µM
U251 CNS
  GI50: 2.48 µM
  TGI: > 100 µM

## O=C(CCc1nnc2sc(-c3ccc(Cl)cc3Cl)nn12)c1nc2ncccc2[nH]1
ACHN renal
  GI50: 1.54 µM
  TGI: 2.91 µM
HCT-15 colon
  GI50: 1.64 µM
  TGI: 4.61 µM
HL-60(TB) leukemia
  GI50: 2.91 µM
  TGI: 12.8 µM
K-562 leukemia
  GI50: 2.44 µM
  TGI: > 100 µM
MALME-3M melanoma
  GI50: 1.85 µM
  TGI: 4.1 µM
NCI-H460 lung
  GI50: 1.89 µM
  TGI: 3.64 µM
RPMI-8226 leukemia
  GI50: 1.8 µM
  TGI: 7.59 µM
SF-295 CNS
  GI50: 1.83 µM
  TGI: 3.44 µM
SW-620 colon
  GI50: 1.56 µM
  TGI: 3.68 µM
U251 CNS
  GI50: 1.92 µM
  TGI: 3.67 µM

## COc1cc(OC)cc(-c2cc(=O)c3c(OC)c(OC)c(OC)c(OC)c3o2)c1
ACHN renal
  TGI: > 100 µM
HCT-15 colon
  TGI: > 100 µM
HL-60(TB) leukemia
  TGI: > 100 µM
K-562 leukemia
  TGI: > 100 µM
MALME-3M melanoma
  TGI: > 100 µM
NCI-H460 lung
  TGI: > 100 µM
RPMI-8226 leukemia
  TGI: > 100 µM
SF-295 CNS
  TGI: 69.8 µM
SW-620 colon
  TGI: > 100 µM
U251 CNS
  TGI: > 100 µM

From PubChem BioAssay (NCI)
